Experimental findings from patent publication US20100256379A1, “ANTI-VIRAL AGENT CONTAINING HETEROCYCLIC AROMATIC COMPOUND AS ACTIVE INGREDIENT” (Kagoshima University, priority 2007, published 2010) are described below.

The test system of series [1] is Bovine viral diarrhea virus (BVDV) Nose strain. The series is described as follows: Anti-BVDV activity: inhibition of viral replication in BVDV-infected MDBK cells (LDH in culture supernatant). In kind it is cell-based. The note with it: for pEC50: Bovine viral diarrhea virus isolates and strains, 72 h, read-out: EC50 (50% effective concentration, 50% inhibition of viral replication); for Selectivity index (CC50/EC50): CC50 in uninfected MDBK cells / EC50 against BVDV; for anti-BVDV effects (in words): summary statements on the tables. The text has this:
The antiviral activity of the compound according to the present invention can be evaluated by a method that involves infecting cells with a virus, adding the compound according to the present invention to medium before, after, or simultaneously with infection, and then measuring the percent inhibition of viral replication. Specifically, such percent inhibition of viral replication can be evaluated by measuring the activity of lactate dehydrogenase (LDH) in the culture supernatant of the virus-infected cells using an LDH cytotoxicity detection kit (Takara Biochemicals), for example. LDH is an enzyme that exists in the cytoplasm and is generally almost never released extracellularly because of the presence of cell membrane. Meanwhile, when cells are infected with a virus and then the virus replicated within the cells, infected cells die. As a result of viral infection, cell membrane is disrupted and then LDH is released into the culture supernatant. […] That is, the degree of cell disruption due to viral replication and the LDH level in the culture supernatant show extremely good positive correlation. Therefore, the antiviral activity (inhibition of viral replication) of the compound according to the present invention can be measured via quantitative determination of LDH in the culture supernatant.
Furthermore, the selectivity index (CC50/EC50) is calculated. The higher the selectivity index, the higher the effects of inhibiting viral replication alone without damaging cells. Therefore, the antiviral activity of the compound according to the present invention can be evaluated using the selectivity index as an index. Also, the antiviral activity of the compound according to the present invention can be evaluated by assay (e.g., Western blot analysis, ELISA, or flow cytometry) for measuring the viral antigen level in virus-infected cells cultured in medium containing the compound according to the present invention or assay (e.g., Northern blot analysis or quantitative RT-PCR) for measuring the virus gene (RNA) level in virus-infected cells.
1) Cell: Madin-Darby bovine kidney cell (hereinafter, referred to as “MDBK cell”);
2) Virus: Bovine viral diarrhea virus (hereinafter, referred to as “BVDV”) Nose strain;
MDBK cells (2×10^5 cells/ml) were infected with BVDV at an MOI of 0.01 (multiplicity of infection, MOI=0.01). Next, a solution containing BVDV-infected cells was dispensed into a 96-well flat bottom microtiter plate at 100 μl per well, simultaneously with the addition of a compound subjected to 5-fold serial dilution, followed by 3 days of culture at 37° C. (5% CO2).
After 3 days of culture, 50 μl of the cultured supernatant was collected and then transferred to another microtiter plate and then 50 μl of the reaction solution of an LDH cytotoxicity detection kit was added. After 30 minutes of culture at room temperature, the microtiter plate was applied to a microplate reader (BioRad Laboratories) and then absorbance was measured at 490 nm/690 nm.
The percent inhibition (%) of viral replication was calculated by the following formula based on the thus obtained absorbance:
100−[(ODT)V−(ODC)M]/[(ODC)V−(ODC)M]×100(%)

Series [2] relates to Madin-Darby bovine kidney cell (MDBK cell). The series is described as follows: Cytotoxicity: inhibition of growth of uninfected MDBK cells (TetraColor One MTT). In kind it is cell-based. Here is the method: (§1) Also, after addition of the compound according to the present invention to medium containing cells not infected with any virus, the percent inhibition of cell growth of the compound according to the present invention is measured. For example, with the use of a reagent for viable cell measurement, such as a water soluble MTT solution TetraColor One™ (Seikagaku Corporation), the percent inhibition of cell growth can be measured.
(§2) At the same time, for measurement of toxicity of each compound, the compound was added to a microtiter plate containing MDBK cells not infected with the virus as described above, followed by 3 days of culture. After 3 days of culture, TetraColor One™ was added to a microtiter plate at 10 μl per well. After 1 hour of incubation at 37° C., the microtiter plate was applied to a microplate reader and then absorbance was measured at 450 nm/690 nm.
(§3) The percent inhibition (%) of cell growth was calculated by the following formula based on the thus obtained absorbance: […]

Assay in series [3]: as above
It is filed as cell-based, bovine. The note with it: bovine. Here is the method:
as §1, §2, §3

The mark [4] stands for this setting: BVDV-infected MDBK cells, MOI 0.01, 3 days of culture, LDH readout, mean of at least two experiments.
Setting [5] is: read-out: CC50 (50% cytotoxicity concentration, 50% inhibition of cell growth), uninfected MDBK cells, 3 days of culture, MTT readout, mean of at least two experiments.

pEC50: −log10 of the molar value. Read-outs that look alike come from different tables or passages of the source. Marks after values point to notes of the source that are not given here. Where only a bound is given, the exact number is not on record here.

`c1ccc2c(c1)[nH]c1ncccc12` [α-Carboline, reference compound]: in series [1] (setting [4]), the pEC50 was 4.04. Also, in series [1], the “Selectivity index (CC50/EC50)” value is more than 1.1; the “anti-BVDV effects (in words)” value is “lower than those of β-carboline and γ-carboline”. Besides, the CC50 in series [2] (bovine, 3 days) was more than 100 µM.

Take `Cc1ccc2c(c1)[nH]c1ccncc12` [Compound 7]: the pEC50 in series [1] (setting [4]) was 5.96. The “Selectivity index (CC50/EC50)” value in series [1] is 21.8. Also, in series [2] (bovine, 3 days), the CC50 turned out to be 24 µM.

Consider `c1ccc2c(c1)[nH]c1ccccc12` [Carbazole, reference compound], for which, in series [1] (MDBK), the pEC50 is less than 4.00. Besides, the CC50 in series [2] (setting [5]) is more than 100 µM.

On to `Cc1ccc2[nH]c3ccncc3c2c1` [Compound 8], for which, in series [1] (setting [4]), the pEC50 is 5.52. Moreover, in series [1], the “Selectivity index (CC50/EC50)” value came out at 4. The compound also registered a CC50 in series [2] (bovine, 3 days) of 12 µM.

Consider `Cc1cc2c(cn1)c1ccccc1n2C` [Compound 11], for which the pEC50 in series [1] (setting [4]) is 7.21. Besides, in series [1], the “Selectivity index (CC50/EC50)” value was determined as 338.7; the “anti-BVDV effects (in words)” value is “activity equivalent to that of compound 12 and the highest selectivity”. This compound showed a CC50 at 3 days in series [3] of 21 µM.

Take Interferon-α: in series [1] (interferon-α, BVDV-infected MDBK cells, MOI 0.01, 3 days, LDH readout), the “EC50 (50% effective concentration, 50% inhibition of viral replication)” value is on record as 5.5* IU/well.

For the compound `c1ccc2c(c1)[nH]c1cccnc12` [δ-Carboline, reference compound], in series [1] (setting [4]), the pEC50 was less than 4.00. Besides, the “anti-BVDV effects (in words)” value in series [1] was “lower than those of β-carboline and γ-carboline”. The same compound came in with a CC50 in series [2] (bovine, 3 days) of more than 100 µM.

Turning to `Cc1cncc2c3ccccc3n(C)c12` [Compound 12], the pEC50 in series [1] (setting [4]) is 7.37. In series [1], the “Selectivity index (CC50/EC50)” value stood at 223.2; the “anti-BVDV effects (in words)” value was “strongest activity and high selectivity”. The compound also came in with a CC50 at 3 days in series [3] of 9.6 µM.

Turning to `Cn1c2ccccc2c2cnccc21` [Compound 5], the pEC50 in series [1] (setting [4]) is 6.59. In series [1], the “Selectivity index (CC50/EC50)” value is listed as 111.5; the “anti-BVDV effects (in words)” value was “strongest activity and the highest selectivity”. The CC50 in series [2] (bovine, 3 days) was 29 µM.

Regarding `c1ccc2c(c1)Cc1ccccc1-2` [Fluorene, reference compound], the pEC50 in series [1] (setting [4]) is less than 4.00. Also, the CC50 in series [2] (bovine, 3 days) is more than 100 µM.

Consider `Cn1ccc2nc3ccccc3c-2c1` [Compound 2], for which the pEC50 in series [1] (setting [4]) was 5.37. Also, the “Selectivity index (CC50/EC50)” value in series [1] is 15.1. The CC50 in series [2] (bovine, 3 days) was found to be 65 µM.

Turning to `Cc1cccc2[nH]c3ccncc3c12` [Compound 9], the pEC50 in series [1] (setting [4]) was 5.92. Also, the “Selectivity index (CC50/EC50)” value in series [1] is reported as 13.3. In addition, the CC50 in series [2] (bovine, 3 days) amounted to 16 µM.

As for `Cc1cc2[nH]c3ccccc3c2cn1` [Compound 3], the pEC50 in series [1] (setting [4]) was 5.66. The “Selectivity index (CC50/EC50)” value in series [1] is on record as 31.8. In series [2] (bovine, 3 days), this compound registered a CC50 of 70 µM.

For the compound `c1ccc2c(c1)oc1ccccc12` [Dibenzofuran, reference compound], in series [1] (MDBK), the pEC50 is less than 4.00. The CC50 in series [2] (setting [5]) is more than 100 µM.

Take `Cc1ccc2c3cnccc3n(C)c2c1` [Compound 14]: the pEC50 in series [1] (setting [4]) is 6.52. Further, the “Selectivity index (CC50/EC50)” value in series [1] stood at 133.3. In series [3], the CC50 at 3 days is 40 µM.

Regarding `Cc1cccc2c1[nH]c1ccncc12` [Compound 6], the pEC50 in series [1] (setting [4]) was 5.77. Besides, the “Selectivity index (CC50/EC50)” value in series [1] is listed as 14.1. This compound also had a CC50 in series [2] (bovine, 3 days) of 24 µM.

On to `NC(=O)c1ncn([C@@H]2O[C@H](CO)[C@@H](O)[C@H]2O)n1` [Ribavirin, 1-β-D-ribofuranousyl-1,2,4-triazole-3-carboxamide, reference compound], for which the pEC50 in series [1] (setting [4]) is 5.41. Further, the “anti-BVDV effects (in words)” value in series [1] is on record as “selective anti-BVDV effects”. In series [3], this compound came in with a CC50 at 3 days of 15.1 µM.

In the case of `Cc1ccc2c(c1)c1cnccc1n2C` [Compound 15], the pEC50 in series [1] (setting [4]) was 6.46. Moreover, in series [1], the “Selectivity index (CC50/EC50)” value amounted to 22.0. The compound further had a CC50 at 3 days in series [3] of 7.7 µM.

In the case of `Cc1cccc2c1c1cnccc1n2C` [Compound 16], in series [1] (setting [4]), the pEC50 was 6.54. The “Selectivity index (CC50/EC50)” value in series [1] was 22.1. In series [3], this compound returned a CC50 at 3 days of 6.4 µM.

Regarding `Cc1cccc2c3cnccc3n(C)c12` [Compound 13], in series [1] (setting [4]), the pEC50 was 6.52. In addition, the “Selectivity index (CC50/EC50)” value in series [1] came out at 36.7. The same compound showed a CC50 at 3 days in series [3] of 11 µM.

For the compound `c1ccc2c(c1)[nH]c1ccncc12` [γ-Carboline], the pEC50 in series [1] (setting [4]) is 5.68. In series [1], the “Selectivity index (CC50/EC50)” value was determined as 19.5 and the “anti-BVDV effects (in words)” value is “selective anti-BVDV effects”. The same compound registered a CC50 at 3 days in series [3] of 41 µM.

As to `Cc1nccc2c1c1ccccc1n2C` [Compound 10], the pEC50 in series [1] (setting [4]) is 6.70. In series [1], the “Selectivity index (CC50/EC50)” value amounted to 26.0. The CC50 at 3 days in series [3] amounted to 5.2 µM.

Regarding `Cc1cncc2c1[nH]c1ccccc12` [Compound 4], the pEC50 in series [1] (setting [4]) was 6.26. Also, the “Selectivity index (CC50/EC50)” value in series [1] is 38.2. The compound further came in with a CC50 in series [2] (bovine, 3 days) of 21 µM.

On to `Cc1nccc2[nH]c3ccccc3c12` [Compound 1], for which the pEC50 in series [1] (setting [4]) was 6.24. For the same compound, the “Selectivity index (CC50/EC50)” value in series [1] is recorded as 16.7. This compound also returned a CC50 in series [2] (bovine, 3 days) of 9.7 µM.

As to `c1ccc2c(c1)[nH]c1cnccc12` [β-Carboline], the pEC50 in series [1] (MDBK) was 5.07. Moreover, in series [1], the “Selectivity index (CC50/EC50)” value is on record as 10.2 and the “anti-BVDV effects (in words)” value is “selective anti-BVDV effects”. Also, in series [3] (uninfected MDBK cells, 3 days of culture, MTT readout, mean of at least two experiments), the CC50 at 3 days was 87 µM.
